Numbered stars: 1 amine (or outer) side, 2 acyl side, 3 side chain; on linkers, the order of the positions; unused ones are H or OH. Bridge positions count the residues as written; N and C are the ends. Square brackets hold non-standard residues; d marks the D form. Peptide text beside a SMILES is read from it. * marks the point of attachment. X51 = O=C([C@H](Cc1cccc(-c2cccc(S(=O)(=O)N3CCOCC3)c2)c1)N[*:1])[*:2]; X20 = CC(NC[C@H](N[*:1])C(=O)[*:2])=C1C(=O)CC(C)(C)CC1=O; X17 = Nc1ccc(-c2cccc(C[C@H](N[*:1])C(=O)[*:2])c2)cn1; X52 = Nc1ccc(-c2ccc(C[C@H](N[*:1])C(=O)[*:2])cc2)cn1; Phe(3-CF3) = N[C@@H](Cc1cccc(C(F)(F)F)c1)C(=O)O; Ala(morpholin-4-yl) = N[C@@H](CN1CCOCC1)C(=O)O; Phe(4-COOH) = N[C@@H](Cc1ccc(C(=O)O)cc1)C(=O)O; Bip = N[C@@H](Cc1ccc(-c2ccccc2)cc1)C(=O)O; Phe(3-Me) = Cc1cccc(C[C@H](N)C(=O)O)c1; Abu(3S-NH2) = C[C@H](N)[C@H](N)C(=O)O; Cha = N[C@@H](CC1CCCCC1)C(=O)O; Carboxymethyl = O=C(O)C*; NMeA = CN[C@@H](C)C(=O)O; Orn = NCCC[C@H](N)C(=O)O; Dab = NCC[C@H](N)C(=O)O
molecular target: T1, Alexa fluor-647 labeled human PD-L1-Ig binding to Jurkat cell line over-expressing human PD-1 (Homo sapiens, UniProt Q15116); test: Jurkat-PD-1 Cell Binding High-Content Screening Assay (CBA): Method 3 (Alexa fluor-647 labeled PD-L1-Ig); conditions: Jurkat-PD-1 cells, Alexa fluor-647 labeled PD-L1-Ig 177 nM; head μM; read-out: CBA Method 3 μM
T1 construct: expressed in transfected cells; host or cells: Jurkat
T1 sequence (Q15116 25-288): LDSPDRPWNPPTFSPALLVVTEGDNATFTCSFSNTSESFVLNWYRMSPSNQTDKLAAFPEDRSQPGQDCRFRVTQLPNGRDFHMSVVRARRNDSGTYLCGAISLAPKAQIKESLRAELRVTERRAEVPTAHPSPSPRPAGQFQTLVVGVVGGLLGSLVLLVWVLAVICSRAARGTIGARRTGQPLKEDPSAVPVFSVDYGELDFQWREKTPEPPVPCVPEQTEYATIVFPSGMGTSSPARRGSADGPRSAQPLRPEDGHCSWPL
Procedure: Jurkat-PD-1 Cell Binding High-Content Screening Assay (CBA): Method 3
Alexa fluor-647 was covalently linked to the Ig epitope tag of human PD-L1-Ig and fluorescently labeled PD-L1-Ig was used for the binding studies with a Jurkat cell line over-expressing human PD-1. Briefly, 2.5×10^4 Jurkat-hPD-1 cells were seeded into 384 well plates in 20 μl of RPMI supplemented with 10% fetal calf serum. 12.5 nl of compound was added to cells followed by incubation at 37° C. for 2 hours. Then, 10 ul of Alexa fluor-647 labeled PD-L1-Ig (177 nM final), diluted in RPMI supplemented with 10% fetal calf serum was added to the cells and incubated for 1 hour. Cells were then fixed with 4% paraformaldehyde containing 10 μg/ml Hoechst 33342 and then washed 3× in 100 ul PBS and 100 ul of PBS was added in the final step. Data was collected using the Operetta High Content Imager and the data was analyzed using the columbus software.

SMILES	IC50
CC(C)C[C@H]1NC(=O)[C@H](C)N(C)C(=O)[C@H](Cc2ccc(C(=O)O)cc2)NC(=O)[C@H](Cc2ccc(-c3ccccc3)cc2)NC(=O)[C@H](Cc2ccc(C(=O)O)cc2)NC(=O)[C@H](Cc2cccc(C(F)(F)F)c2)NC(=O)[C@H](CC(=O)N[C@@H](CC(=O)O)C(=O)O)NC(=O)[C@H](Cc2ccc(C(=O)O)cc2)NC(=O)[C@H]([C@H](C)N)NC(=O)CSC[C@@H](C(=O)N[C@@H](CCN)C(N)=O)NC(=O)[C@H](CC(N)=O)NC(=O)[C@H](C(C)C)NC(=O)[C@H](CC2CCCCC2)NC(=O)[C@H](CCN)NC1=O [Example 5102] ({CH2CO}-[Abu(3S-NH2)][Phe(4-COOH)]D(Asp)[Phe(3-CF3)][Phe(4-COOH)][Bip][Phe(4-COOH)][NMeA][dL][Dab][Cha]VNC[Dab]-NH2; thioether N-14)	0.51 µM
Cc1cccc(C[C@@H]2NC(=O)[C@H](CC(=O)O)NC(=O)[C@H](Cc3ccc(OCC(=O)O)cc3)NC(=O)[C@H](CN3CCOCC3)NC(=O)CSC[C@@H](C(=O)N[C@@H](CCN)C(N)=O)NC(=O)[C@H](CCCN)NC(=O)[C@H](C(C)C)NC(=O)[C@H](CC3CCCCC3)NC(=O)[C@H](CCN)NC(=O)[C@@H](CC(C)C)NC(=O)[C@H](C)N(C)C(=O)[C@H](CCC(N)=O)NC(=O)[C@H](Cc3ccc(-c4ccccc4)cc3)NC(=O)[C@H](Cc3cccc(-c4ccc(N)nc4)c3)NC2=O)c1 [Example 5103] ({CH2CO}-[Ala(morpholin-4-yl)]Y(Carboxymethyl)D[Phe(3-Me)][X17][Bip]Q[NMeA][dL][Dab][Cha]V[Orn]C[Dab]-NH2; thioether N-14)	0.38 µM
Cc1cccc(C[C@@H]2NC(=O)[C@H](CC(=O)O)NC(=O)[C@H](Cc3ccc(OCC(=O)O)cc3)NC(=O)[C@H](CN3CCOCC3)NC(=O)CSC[C@@H](C(=O)N[C@@H](CCN)C(N)=O)NC(=O)[C@H](CCCN)NC(=O)[C@H](C(C)C)NC(=O)[C@H](CC3CCCCC3)NC(=O)[C@H](CCN)NC(=O)[C@@H](CC(C)C)NC(=O)[C@H](C)N(C)C(=O)[C@H](CCC(N)=O)NC(=O)[C@H](Cc3ccc(-c4ccccc4)cc3)NC(=O)[C@H](Cc3cccc(-c4cccc(S(=O)(=O)N5CCOCC5)c4)c3)NC2=O)c1 [Example 5106] ({CH2CO}-[Ala(morpholin-4-yl)]Y(Carboxymethyl)D[Phe(3-Me)][X51][Bip]Q[NMeA][dL][Dab][Cha]V[Orn]C[Dab]-NH2; thioether N-14)	0.06 µM

The next compounds have a lower IC50 than those just listed; values first:

IC50	SMILES
0.05 µM	Cc1cccc(C[C@@H]2NC(=O)[C@H](CC(=O)O)NC(=O)[C@H](Cc3ccc(OCC(=O)O)cc3)NC(=O)[C@H](CN3CCOCC3)NC(=O)CSC[C@@H](C(=O)N[C@@H](CCN)C(N)=O)NC(=O)[C@H](CCCN)NC(=O)[C@H](C(C)C)NC(=O)[C@H](CC3CCCCC3)NC(=O)[C@H](CCN)NC(=O)[C@@H](CC(C)C)NC(=O)[C@H](C)N(C)C(=O)[C@H](CCC(N)=O)NC(=O)[C@H](Cc3ccc(-c4ccccc4)cc3)NC(=O)[C@H](Cc3ccc(-c4ccc(N)nc4)cc3)NC2=O)c1 [Example 5104] ({CH2CO}-[Ala(morpholin-4-yl)]Y(Carboxymethyl)D[Phe(3-Me)][X52][Bip]Q[NMeA][dL][Dab][Cha]V[Orn]C[Dab]-NH2; thioether N-14)
0.02 µM	CC(NC[C@@H]1NC(=O)[C@H](Cc2ccc(C(=O)O)cc2)NC(=O)[C@H](CN2CCOCC2)NC(=O)CSC[C@@H](C(=O)N[C@@H](CCN)C(N)=O)NC(=O)[C@H](CCCN)NC(=O)[C@H](C(C)C)NC(=O)[C@H](CC2CCCCC2)NC(=O)[C@H](CCN)NC(=O)[C@@H](CC(C)C)NC(=O)[C@H](C)N(C)C(=O)[C@H](CCC(N)=O)NC(=O)[C@H](Cc2ccc(-c3ccccc3)cc2)NC(=O)[C@H](Cc2ccc(C(=O)O)cc2)NC(=O)[C@H](Cc2cccc(C(F)(F)F)c2)NC1=O)=C1C(=O)CC(C)(C)CC1=O [Example 5105] ({CH2CO}-[Ala(morpholin-4-yl)][Phe(4-COOH)][X20][Phe(3-CF3)][Phe(4-COOH)][Bip]Q[NMeA][dL][Dab][Cha]V[Orn]C[Dab]-NH2; thioether N-14)

Source: US20240409585A1, “MACROCYCLIC IMMUNOMODULATORS” (priority 2021, published 2024)
